We go through seven substances from US10428124B2, “Timothy grass allergens and methods and uses for immune response modulation” (LA JOLLA INSTITUTE FOR ALLERGY AND IMMUNOLOGY, priority 2012, dated 2019).

Assay [1] deals with PBMCs from TG allergic donors. Kind of assay: IFNg ELISPOT of TG extract-expanded PBMCs from TG allergic donors (single peptides). The format is cell-based, human. The settings on record: for Total response IFNg Events: number of positive response events.
The subject of another assay is human IgG. Kind of assay: 2D gel immunoblot of TG extract with serum pool from 8 TG-allergic donors, IgG reactivity. The format is binding. Conditions: for Antibody reactivity IgE/IgG: IgG: IgG reactivity (G+/G−) of the source antigen of the peptide. Here is the method: (§1) 2D DIGE (Difference Gel Electrophoresis) analysis. The complete 2D DIGE analysis was performed by Applied Biomics (Hayward, Calif., US). Briefly, TG extract was run on two 2D gels (3-10 pH range, 12% SDS-acrylamide gel), one was Coomassie blue stained, the other was blotted onto a nitrocellulose membrane. The membrane was then incubated with 5% dried milk in PBS/0.05% Tween to block non-specific binding and subsequently probed with a serum pool from 8 TG-allergic individuals at a dilution of 1:250. IgE and IgG binding was detected using goat anti-human IgE and rabbit anti-human IgG (Sigma-Aldrich, St. Louis, Mo.) and visualized using Cy2-conjugated donkey anti-goat IgG and Cy5-conjugated donkey […] IgG antibodies (Biotium, Hayward, Calif.).
(§2) Mass spectral protein identification was performed by Applied Biomics (Hayward, Calif., US). Briefly, spots of interest were selected from the 2D blot and the corresponding spots were identified on the stained SDS gel and cut out, washed several times to remove staining dye and other inhibitory chemicals. The spots were then dried to absorb maximum digestion buffer. Dried 2D gel spots were rehydrated in digestion buffer containing trypsin. Proteins were digested in-gel at 37° C. and then extracted from the gel with TFA extraction buffer. Subsequently the peptides were desalted using C-18 Zip-tips (Millipore) and mixed with CHCA matrix (alpha-cyano-4-hydroxycinnamic acid) and spotted into wells of a MALDI plate. Mass spectra of the peptides in each sample were obtained using an Applied Biosystems Proteomics Analyzer. The spectra were compared to the amino acid sequences encoded by putative ORFs from the de novo assembled TG pollen transcripts. […] The amino acid sequences encoded by these ORFs were clustered using a custom script at a sequence similarity threshold of 90% to group together highly similar protein sequences. These sequences are encoded by different transcripts from the current assembly, which could arise from splice variants, allelic variation between cells of TG pollen, and from gene families with multiple members. Amino acid sequences that form one cluster are assigned one putative protein ID (Table 1).
A general note: A western blot detects proteins with antibodies after separation by electrophoresis.

Assay [2] has as its system PBMCs from TG allergic donors. Kind of assay: IL-5 ELISPOT of TG extract-expanded PBMCs from TG allergic donors (peptide pools, single peptides, TG extract). Type of assay: cell-based, human. Here is the method:
Each donor was recruited following Institutional Review Board approval (Federal Wide Assurance number 00000032) and informed consent and assigned a study identification number. Donors were tested for allergen reactivity by skin prick tests to extracts from 32 common allergens. TG allergic donors were identified as having a skin reaction with a wheal of 5 mm in diameter to TG and a clinical history consistent with seasonal grass pollen allergy. Donors that had received specific immunotherapy were excluded. Non-allergic donors were identified as having negative skin prick tests to all allergens and no clinical history of allergy.
PBMCs were isolated by density gradient centrifugation from one unit of blood (˜450 ml) and cryo-preserved as described previously (12). For in vitro expansions, PBMCs were thawed and cultured in RPMI 1640 (Ω Scientific, Tarzana, Calif.) supplemented with 5% human AB serum (Cellgro, Herndon, Va.) at a density of 2×10^6 cells/ml in 24-well plates (BD Biosciences, San Jose, Calif.) and stimulated with TG pollen extract ([…]) (Greer, Lenoir, N.C.). Cells were kept at 37° C., 5% CO2 and additional IL-2 and IL-7 (10 U/ml, eBioscience, San Diego, Calif.) was added every 3 d after initial antigenic stimulation. On day 14, cells were harvested and screened for reactivity against TG-specific peptide pools (16-25 peptides/pool, averaging 20 peptides/pool). On day 17, peptides from positive pools were tested individually to identify the reactive epitopes.
The production of IL-5 from cultured PBMCs in response to antigen stimulation was measured by ELISPOT as described previously (12). Briefly, 1×10^5 cells/well were incubated with peptide, peptide pool or TG extract (10 μg/ml, 5 μg/ml and 50 μg/ml, respectively). After 24 h, cells were removed and plates were incubated with 2 μg/ml biotinylated anti-human IL-5 Ab (Mabtech) at 37° C. After 2 h, plates were washed and avidin-peroxidase-complex was added (Vector Laboratories, Burlingame, Calif.) for 1 h at RT. Peroxidase-conjugated spots were developed with 3-amino-9-ethylcarvazole solution (Sigma-Aldrich, St. Louis, Mo.). Criteria for peptide pool positivity were 100 SFCs/106 PBMCs, p 0.05, and a stimulation index (SI) 2. Criteria for individual peptides were the same except a minimum of 20 SFCs was counted as positive.

The test system of assay [3] is PBMCs from TG allergic donors. Nature of the assay: IFNg ELISPOT of TG extract-expanded PBMCs from TG allergic donors (single peptides). The format is cell-based, human. Conditions: T cell recognition in TG allergic patients; for Total response IFNg Events: number of response events.
The next assay deals with human IgE. Kind of assay: 2D gel immunoblot of TG extract with serum pool from 8 TG-allergic donors, IgE reactivity. The format is binding. The settings on record: for Antibody reactivity IgE/IgG: IgE: IgE reactivity (E+/E−) of the source antigen of the peptide; for Antibody reactvity IgE/IgG: IgE: E− = not IgE reactive. The protocol: as §1, §2
In assay [4] the test system is PBMCs from TG allergic donors. Kind of assay: IFNg ELISPOT of TG extract-expanded PBMCs from TG allergic donors (single peptides). Type of assay: cell-based, human. The settings on record: T cell recognition in TG allergic patients; for Total response IFNg Events: number of positive responses.
Assay [5] concerns PBMCs from TG allergic donors. Kind of assay: IFNg ELISPOT of TG extract-expanded PBMCs (single peptides). The format is cell-based, human. Conditions: for Total response IFNg Events: number of positive response events to the 15-mer peptide.
For assay [6], the system named is PBMCs from TG allergic donors. Kind of assay: IFNg ELISPOT of TG extract-expanded PBMCs from TG allergic donors (single peptides). Type of assay: cell-based, human. The settings on record: TG allergic patients; number of positive responses.
[7] abbreviates: G+ / G− part of the cell, reactivity of the parent antigen.
Where [8] appears, read: IL-5, number of positive response events.
[9] abbreviates: T cell recognition in TG allergic patients.
The mark [10] stands for this setting: T cell recognition in TG allergic patients, number of response events.
Where [11] appears, read: E+ / E− part of the cell, reactivity of the parent antigen.
The mark [12] stands for this setting: reactivity of the parent TG antigen, given per peptide, G− = not IgG reactive.
Where [13] appears, read: T cell recognition in TG allergic patients, number of positive responses.
Where [14] appears, read: reactivity of the parent TG antigen, given per peptide.
The mark [15] stands for this setting: reactivity of the parent antigen, G+ = IgG reactive, G− = not.
The mark [16] stands for this setting: number of positive response events to the 15-mer peptide.
The mark [17] stands for this setting: reactivity of the parent antigen.

For “252 (SAPALRILRSFPSHS; Phleum pratense) [Peptide 252]”, the “Total response IFNg Events” value in assay [1] and in assay [3] was 1 in each case. The “Total response IFNg SFC” value in assay [1] and in assay [3] was 143 SFC each time. Further, the “Antibody reactvity IgE/IgG (IgG part)” value in the assay on human IgG (setting [7]) is given as “G−”. In the assay on human IgG, the “Antibody reactivity IgE/IgG: IgG” value is given as “G−”. The “Total response IL-5 Events” value in assay [2] (setting [8]) and in assay [2] (setting [10]) was 1 throughout. Further, the “Total response IL-5 SFC” value is given as 97 SFC in assay [2] (IL-5, total SFC) and 97 SFC in assay [2] (setting [9]). For the same substance, in the assay with human IgE (setting [11]), the “Antibody reactvity IgE/IgG (IgE part)” value is given as “E+”. Also, the “Antibody reactivity IgE/IgG: IgE” value in the assay with human IgE is “E+”.
For “375 (EEAASTLPGLSSSTL; Phleum pratense) [Peptide 375]”, the “Antibody reactivity IgE/IgG: IgG” value in the assay on human IgG is on record as “G+”. For the same substance, in assay [2] (setting [10]), the “Total response IL-5 Events” value turned out to be 0. Besides, the “Total response IFNg Events” value in assay [3] is listed as 0. Moreover, the “Antibody reactivity IgE/IgG: IgE” value with human IgE is listed as “E−”.
With “882 (DVYPTVCLPMCVCVL; Phleum pratense) [Peptide 882]”, the “Total response IFNg Events” value in assay [4] was 0. In the assay on human IgG (setting [12]), the “Antibody reactvity IgE/IgG: IgG” value is reported as “G−”. For the same substance, the “Total response IL-5 Events” value in assay [2] (setting [13]) is given as 0. Also, the “Antibody reactvity IgE/IgG: IgE” value in the assay on human IgE (setting [14]) is “E−”.
With “26138 (KVINDRFGIVEGLMT; Phleum pratense) [Peptide 26138]”, the “Total response IFNg Events” value in assay [1] and in assay [3] was 1 in each case. The “Total response IFNg SFC” value in assay [1] and in assay [3] was 37 SFC in each case. Further, the “Antibody reactvity IgE/IgG (IgG part)” value in the assay with human IgG (setting [7]) is reported as “G−”. Also, in the assay on human IgG, the “Antibody reactivity IgE/IgG: IgG” value is “G−”. The “Total response IL-5 Events” value in assay [2] (setting [8]) and in assay [2] (setting [10]) was 0 throughout. In addition, the “Antibody reactvity IgE/IgG (IgE part)” value with human IgE (setting [11]) was “E+”. The “Antibody reactivity IgE/IgG: IgE” value with human IgE was “E+”.
On to “30285 (VFNDDIQGTASVVLA; Phleum pratense) [Peptide 30285]”, for which the “Total response IFNg Events” value in assay [1] and in assay [3] was 0 throughout. The “Antibody reactvity IgE/IgG (IgG part)” value with human IgG (setting [7]) is on record as “G−”. In addition, in the assay with human IgG, the “Antibody reactivity IgE/IgG: IgG” value was “G−”. Besides, the “Total response IL-5 Events” value in assay [2] (setting [8]) and in assay [2] (setting [10]) was 1 in each case. In addition, the “Total response IL-5 SFC” value is reported as 67 SFC in assay [2] (IL-5, total SFC) and 67 SFC in assay [2] (setting [9]). The “Antibody reactvity IgE/IgG (IgE part)” value in the assay on human IgE (setting [11]) is listed as “E+”. The “Antibody reactivity IgE/IgG: IgE” value in the assay on human IgE was “E+”.
As to “82109 (GDLYIFESRAICKYA; Phleum pratense) [Peptide 82109]”, the “Total response IFNg Events” value in assay [5] and in assay [6] was 0 each time. Further, the “Antibody reactvity IgE/IgG (IgG part)” value in the assay with human IgG (IgG reactivity of the parent antigen) is recorded as “G−”. In addition, the “Antibody reactvity IgE/IgG: IgG” value in the assay on human IgG (setting [15]) is given as “G−”. Besides, the “Total response IL-5 SFC” value in assay [2] (15-mer peptide) was determined as 290 SFC; in assay [2] (TG allergic patients, total spot-forming cells) it was 290 SFC. The “Total response IL-5 Events” value in assay [2] (TG allergic patients, number of positive responses) is on record as 1; in assay [2] (setting [16]) it was 1. In addition, in the assay on human IgE (IgE reactivity of the parent antigen), the “Antibody reactvity IgE/IgG (IgE part)” value was “E−”. For the same substance, the “Antibody reactvity IgE/IgG: IgE” value in the assay with human IgE (setting [17]) is “E−”.
With “86231 (IMQLLRDNLTLWTSD; Phleum pratense) [Peptide 86231]”, the “Total response IFNg SFC” value in assay [4] and in assay [5] (15-mer peptide) was 73 SFC each time. The “Total response IFNg Events” value in assay [4] and in assay [5] was 1 in each case. For the same substance, the “Antibody reactvity IgE/IgG: IgG” value in the assay on human IgG (setting [12]) and with human IgG (setting [15]) was “G−” throughout. For the same substance, the “Total response IL-5 Events” value in assay [2] (setting [13]) and in assay [2] (setting [16]) was 0 throughout. The “Antibody reactvity IgE/IgG: IgE” value in the assay on human IgE (setting [14]) and in the assay on human IgE (setting [17]) was “E−” in each case.
